Results on one compound are retold here after BindingDB's records for doi:10.1016/j.ejmech.2014.06.037 (The Second People'S Hospital of Fujian Provinc, 2014).

For the experiment, the target named is Tumor necrosis factor (Homo sapiens, UniProt P01375). The experiment in a line: Binding affinity to TNF-alpha (unknown origin).

Each structure is given as a SMILES string.

Sequence of Tumor necrosis factor (P01375 whole entry): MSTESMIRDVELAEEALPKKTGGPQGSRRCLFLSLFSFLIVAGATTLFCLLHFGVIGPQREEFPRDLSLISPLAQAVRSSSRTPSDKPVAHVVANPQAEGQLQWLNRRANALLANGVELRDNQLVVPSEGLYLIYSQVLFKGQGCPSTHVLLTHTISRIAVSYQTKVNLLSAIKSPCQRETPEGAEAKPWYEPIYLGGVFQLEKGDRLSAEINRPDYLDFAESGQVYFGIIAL

Consider `C[C@H](CC(=O)C[C@@H](C)[C@H]1C[C@@H](O)[C@@]2(C)C3=C(C(=O)C[C@@]12C)[C@@]1(C)CCC(=O)C(C)(C)[C@H]1C[C@@H]3O)C(=O)O`, for which the dissociation constant Kd was determined as 8 nM.
